From ChEMBL document CHEMBL1148252, “Orally bioavailable small molecule ketoamide-based inhibitors of cathepsin K” (Bioorg Med Chem Lett, 2004)
Values after ≈ are worked out from the molar mass of the structure shown. Each block holds one compound with its values, some of them ahead of it.

What was measured:
[1] = Steady state volume of distribution (Vsss) was determined; type: ADME, organism-based; settings: in vivo; read-out: Vsss
[2] = Oral bioavailability in rat (male Wistar); type: ADME, organism-based; settings: in vivo
[3] = Tested for iv terminal half-life dosed as a solution in male Han Wistar rats; type: ADME, organism-based; settings: rat, in vivo
[4] = Tested for the total clearance of the compound; type: ADME, organism-based; settings: in vivo
[5] = Partition coefficient (logP); type: physicochemical; settings: octanol/water
[6] = Apparent permeability coefficient (Papp) for apical to basolateral flux was determined in MadinDarby Canine Kidney cells; type: ADME, Canis lupus familiaris; settings: dog, MDCK
[7] = Tested for equilibrium solubility in fasted state-simulated intestinal fluid at pH 6.8; type: ADME; settings: fasted state-simulated intestinal fluid (FS-SIF)

SMILES: CNC(=O)NCCCC[C@H](NC(=O)OC(C(C)C)C(C)C)C(=O)C(=O)N[C@H](C)c1ccccc1
Vd [1]: 1.5 L/kg | bioavailability [2]: 10% | half-life [3]: 4.33 h | clearance [4]: 24 mL/min/kg | logP [5]: 5.5 | solubility thermodynamic [7]: 32 µg/mL (≈ 67.1 µM)

SMILES: CCCC[C@H](NC(=O)OC(C(C)C)C(C)C)C(=O)C(=O)NCc1nnco1
Vd [1]: 0.98 L/kg | bioavailability [2]: 16% | half-life [3]: 0.35 h | clearance [4]: 33 mL/min/kg | logP [5]: 3.4 | Papp A→B [6]: 51 ×10⁻⁶ cm/s | solubility thermodynamic [7]: 150 µg/mL (≈ 392 µM)

SMILES: CCCC[C@H](NC(=O)OC(C(C)C)C(C)C)C(=O)C(=O)N[C@H]1CCCNC1=O
Vd [1]: 1.6 L/kg | bioavailability [2]: 20% | half-life [3]: 3.67 h | clearance [4]: 44 mL/min/kg | logP [5]: 4.4 | Papp A→B [6]: 31 ×10⁻⁶ cm/s | solubility thermodynamic [7]: 350 µg/mL (≈ 880 µM)

SMILES: CCCC[C@H](NC(=O)OC(C(C)C)C(C)C)C(=O)C(=O)N[C@H](C)c1ccccc1
Vd [1]: 1.9 L/kg | bioavailability [2]: 3.1% | clearance [4]: 8.7 mL/min/kg | logP [5]: 7.3 | Papp A→B [6]: 5.7 ×10⁻⁶ cm/s | solubility thermodynamic [7]: 12 µg/mL (≈ 29.7 µM)

The next lines start with the values.

Vd [1]: 1.2 L/kg | bioavailability [2]: 32% | half-life [3]: 0.867 h | clearance [4]: 29 mL/min/kg | logP [5]: 5 | Papp A→B [6]: 41 ×10⁻⁶ cm/s | solubility thermodynamic [7]: 63 µg/mL (≈ 165 µM)
SMILES: CCCC[C@H](NC(=O)OC(C(C)C)C(C)C)C(=O)C(=O)NCc1ccno1

Vd [1]: 0.24 L/kg | bioavailability [2]: 10% | half-life [3]: 1.28 h | clearance [4]: 5.2 mL/min/kg | Papp A→B [6]: 51 ×10⁻⁶ cm/s | solubility thermodynamic [7]: 28 µg/mL (≈ 71.5 µM)
SMILES: CCCC[C@H](NC(=O)OC(C(C)C)C(C)C)C(=O)C(=O)NCc1ccccn1

Vd [1]: 0.09 L/kg | bioavailability [2]: 5.2% | half-life [3]: 4 h | clearance [4]: 7.1 mL/min/kg | solubility thermodynamic [7]: 62 µg/mL (≈ 158 µM)
SMILES: CCCC[C@H](NC(=O)OC(C(C)C)C(C)C)C(=O)C(=O)NCc1ccncc1

Vd [1]: 1.3 L/kg | bioavailability [2]: 55% | half-life [3]: 2.5 h | clearance [4]: 28 mL/min/kg | logP [5]: 5.3 | Papp A→B [6]: 48 ×10⁻⁶ cm/s | solubility thermodynamic [7]: 51 µg/mL (≈ 128 µM)
SMILES: CCCC[C@H](NC(=O)OC(C(C)C)C(C)C)C(=O)C(=O)NCc1cncs1
